Data on 29 molecules can be found in US11649255B2, “Indazoles as hematopoietic progenitor kinase 1 (HPK1) inhibitors and methods using same” (1st Biotherapeutics, Inc., priority 2020, dated 2023).

This assay concerns the target recombinant human HPK1 (Homo sapiens (Human), UniProt Q92918). Briefly: HPK1 kinase assay (ADP-Glo). The following applies: 25 μM ATP, MBP substrate. Type of assay: biochemical. The procedure, abridged:
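Activity was read as ADP formed, detected by ADP-Glo luminescence after the reaction of 5 ng recombinant human HPK1 with MBP and ATP (stocks 0.5 μg/μl and 25 μM) for 40 min at 30 °C. Buffer was Tris pH 7.5 with MgCl2, BSA and DTT, with compound in 0.5% DMSO. IC50 came from inhibition curves.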

recombinant human HPK1, sequence (Q92918 whole entry): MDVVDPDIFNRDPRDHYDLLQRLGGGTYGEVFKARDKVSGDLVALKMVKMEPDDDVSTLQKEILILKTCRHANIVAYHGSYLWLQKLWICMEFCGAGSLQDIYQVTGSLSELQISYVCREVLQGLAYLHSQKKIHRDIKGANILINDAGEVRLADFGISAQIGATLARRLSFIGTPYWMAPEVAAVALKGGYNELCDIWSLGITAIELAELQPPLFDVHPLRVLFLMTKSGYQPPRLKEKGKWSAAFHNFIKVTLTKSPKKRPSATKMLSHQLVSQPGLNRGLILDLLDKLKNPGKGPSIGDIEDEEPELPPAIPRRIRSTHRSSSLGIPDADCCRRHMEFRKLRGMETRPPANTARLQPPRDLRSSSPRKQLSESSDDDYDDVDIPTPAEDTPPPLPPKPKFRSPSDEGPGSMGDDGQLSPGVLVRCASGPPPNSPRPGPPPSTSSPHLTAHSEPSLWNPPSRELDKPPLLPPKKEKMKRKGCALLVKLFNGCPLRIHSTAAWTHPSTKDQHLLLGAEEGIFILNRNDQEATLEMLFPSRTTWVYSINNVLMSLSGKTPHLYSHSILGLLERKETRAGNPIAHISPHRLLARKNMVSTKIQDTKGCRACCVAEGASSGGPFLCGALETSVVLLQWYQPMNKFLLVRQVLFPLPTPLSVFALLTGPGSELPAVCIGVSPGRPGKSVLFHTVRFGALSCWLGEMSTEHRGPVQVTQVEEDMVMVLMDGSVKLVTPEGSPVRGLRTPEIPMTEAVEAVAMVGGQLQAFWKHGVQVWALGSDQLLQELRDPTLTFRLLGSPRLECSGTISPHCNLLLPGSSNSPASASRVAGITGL

In the case of `CC(=O)Nc1c(F)c(C)c(-c2ccc3nc(NC(=O)[C@@H]4C[C@@H]4F)sc3c2)c2cn[nH]c12` [Example 113, (1S,2S)-N-(6-(7-acetamido-6-fluoro-5-methyl-1H-indazol-4-yl)benzo[d]thiazol-2-yl)-2-fluorocyclopropane-1-carboxamide], the IC50 was below 0.1 µM.
Take `CN(Nc1c(F)c(Cl)c(-c2ccc3nc(NC(=O)[C@@H]4C[C@@H]4F)sc3c2)c2cn[nH]c12)C(=O)OC(C)(C)C` [Example 114, tert-butyl 2-(5-chloro-6-fluoro-4-(2-((1S,2S)-2-fluorocyclopropane-1-carboxamido)benzo[d]thiazol-6-yl)-1H-indazol-7-yl)-1-methylhydrazine-1-carboxylate]: the IC50 was 0.101 to 0.5 µM.
With `CNNc1c(F)c(Cl)c(-c2ccc3nc(NC(=O)[C@@H]4C[C@@H]4F)sc3c2)c2cn[nH]c12` [Example 115, (1S,2S)-N-(6-(5-chloro-6-fluoro-7-(2-methylhydrazineyl)-1H-indazol-4-yl)benzo[d]thiazol-2-yl)-2-fluorocyclopropane-1-carboxamide] the figure was below 0.1 µM; with `COC(=O)c1c(F)c(C)c(-c2ccc3nc(NC(=O)[C@@H]4C[C@@H]4F)sc3c2)c2cn[nH]c12` [Example 116, methyl 6-fluoro-4-(2-((1S,2S)-2-fluorocyclopropane-1-carboxamido)benzo[d]thiazol-6-yl)-5-methyl-1H-indazole-7-carboxylate], below 0.1 µM.
With `CSc1c(F)c(F)c2[nH]ncc2c1-c1ccc2nc(NC(=O)[C@@H]3C[C@@H]3F)sc2c1` [Example 117, (1S,2S)-N-(6-(6,7-difluoro-5-(methylthio)-1H-indazol-4-yl)benzo[d]thiazol-2-yl)-2-fluorocyclopropane-1-carboxamide 2,2,2-trifluoroacetate] the figure was below 0.1 µM; with `CS(=O)(=O)c1c(F)c(Cl)c(-c2ccc3nc(NC(=O)[C@@H]4C[C@@H]4F)sc3c2)c2cn[nH]c12` [Example 119, (1S,2S)-N-(6-(5-chloro-6-fluoro-7-(methylsulfonyl)-1H-indazol-4-yl)benzo[d]thiazol-2-yl)-2-fluorocyclopropane-1-carboxamide], 0.101 to 0.5 µM; with `CC(=O)N(C)c1c(F)c(C)c(-c2ccc3nc(NC(=O)[C@@H]4C[C@@H]4F)sc3c2)c2cn[nH]c12` [Example 120, (1S,2S)-2-fluoro-N-(6-(6-fluoro-5-methyl-7-(N-methylacetamido)-1H-indazol-4-yl)benzo[d]thiazol-2-yl)cyclopropane-1-carboxamide], below 0.1 µM.
Next, `O=C(O)c1c(F)c(Cl)c(-c2ccc3nc(NC(=O)[C@@H]4C[C@@H]4F)sc3c2)c2cn[nH]c12` [Example 121, 5-chloro-6-fluoro-4-(2-((1S,2S)-2-fluorocyclopropane-1-carboxamido)benzo[d]thiazol-6-yl)-1H-indazole-7-carboxylic acid]: above 1 µM; `COC(=O)c1c(F)c(Cl)c(-c2ccc3nc(NC(=O)[C@@H]4C[C@@H]4F)sc3c2)c2cn[nH]c12` [Example 122, methyl 5-chloro-6-fluoro-4-(2-((1S,2S)-2-fluorocyclopropane-1-carboxamido)benzo[d]thiazol-6-yl)-1H-indazole-7-carboxylate]: below 0.1 µM.
`Cc1c(F)c(C(=O)O)c2[nH]ncc2c1-c1ccc2nc(NC(=O)[C@@H]3C[C@@H]3F)sc2c1` [Example 124, 6-fluoro-4-(2-((1S,2S)-2-fluorocyclopropane-1-carboxamido)benzo[d]thiazol-6-yl)-5-methyl-1H-indazole-7-carboxylic acid]: the IC50 is above 1 µM.
On to `O=C(Nc1nc2ccc(-c3c(Cl)c(F)c(F)c4[nH]ncc34)cc2s1)[C@@H]1C[C@@H]1F` [Example 126, (1S,2S)-N-(6-(5-chloro-6,7-difluoro-1H-indazol-4-yl)benzo[d]thiazol-2-yl)-2-fluorocyclopropane-1-carboxamide], for which the IC50 is below 0.1 µM.
With `CNC(=O)c1c(F)c(Cl)c(-c2ccc3nc(NC(=O)[C@@H]4C[C@@H]4F)sc3c2)c2cn[nH]c12` [Example 127, 5-chloro-6-fluoro-4-(2-((1S,2S)-2-fluorocyclopropane-1-carboxamido)benzo[d]thiazol-6-yl)-N-methyl-1H-indazole-7-carboxamide] the figure was below 0.1 µM; with `CC(=O)c1c(F)c(Cl)c(-c2ccc3nc(NC(=O)[C@@H]4C[C@@H]4F)sc3c2)c2cn[nH]c12` [Example 128, (1S,2S)-N-(6-(7-acetyl-5-chloro-6-fluoro-1H-indazol-4-yl)benzo[d]thiazol-2-yl)-2-fluorocyclopropane-1-carboxamide], 0.101 to 0.5 µM; with `CN(c1c(F)c(Cl)c(-c2ccc3nc(NC(=O)[C@@H]4C[C@@H]4F)sc3c2)c2cn[nH]c12)C1CNC1` [Example 129, (1S,2S)-N-(6-(7-(azetidin-3-yl(methyl)amino)-5-chloro-6-fluoro-1H-indazol-4-yl)benzo[d]thiazol-2-yl)-2-fluorocyclopropane-1-carboxamide], below 0.1 µM.
With `CN(C)c1c(F)c(C(F)(F)F)c(-c2ccc3nc(NC(=O)[C@@H]4C[C@@H]4F)sc3c2)c2cn[nH]c12` [Example 130, (1S,2S)-N-(6-(7-(dimethylamino)-6-fluoro-5-(trifluoromethyl)-1H-indazol-4-yl)benzo[d]thiazol-2-yl)-2-fluorocyclopropane-1-carboxamide] the figure was below 0.1 µM.
Next, `CC(=O)c1c(F)c(C)c(-c2ccc3nc(NC(=O)[C@@H]4C[C@@H]4F)sc3c2)c2cn[nH]c12` [Example 131, (1S,2S)-N-(6-(7-acetyl-6-fluoro-5-methyl-1H-indazol-4-yl)benzo[d]thiazol-2-yl)-2-fluorocyclopropane-1-carboxamide]: 0.101 to 0.5 µM; `CNC(=O)c1c(F)c(C)c(-c2ccc3nc(NC(=O)[C@@H]4C[C@@H]4F)sc3c2)c2cn[nH]c12` [Example 132, 6-fluoro-4-(2-((1S,2S)-2-fluorocyclopropane-1-carboxamido)benzo[d]thiazol-6-yl)-N,5-dimethyl-1H-indazole-7-carboxamide]: 0.101 to 0.5 µM.
For the molecule `CCN(C)c1c(F)c(Cl)c(-c2ccc3nc(NC(=O)[C@@H]4C[C@@H]4F)sc3c2)c2cn[nH]c12` [Example 133, (1S,2S)-N-(6-(5-chloro-7-(ethyl(methyl)amino)-6-fluoro-1H-indazol-4-yl)benzo[d]thiazol-2-yl)-2-fluorocyclopropane-1-carboxamide], the IC50 was below 0.1 µM.
With `NC(=O)c1c(F)c(Cl)c(-c2ccc3nc(NC(=O)[C@@H]4C[C@@H]4F)sc3c2)c2cn[nH]c12` [Example 135, 5-chloro-6-fluoro-4-(2-((1S,2S)-2-fluorocyclopropane-1-carboxamido)benzo[d]thiazol-6-yl)-1H-indazole-7-carboxamide], the IC50 was above 1 µM.
Consider `CCc1c(F)c(N(C)CC)c2[nH]ncc2c1-c1ccc2nc(NC(=O)[C@@H]3C[C@@H]3F)sc2c1` [Example 136, (1S,2S)-N-(6-(5-ethyl-7-(ethyl(methyl)amino)-6-fluoro-1H-indazol-4-yl)benzo[d]thiazol-2-yl)-2-fluorocyclopropane-1-carboxamide], for which the IC50 is below 0.1 µM.
With `CCN(C)c1c(F)c(SC)c(-c2ccc3nc(NC(=O)[C@@H]4C[C@@H]4F)sc3c2)c2cn[nH]c12` [Example 138, (1S,2S)-N-(6-(7-(ethyl(methyl)amino)-6-fluoro-5-(methylthio)-1H-indazol-4-yl)benzo[d]thiazol-2-yl)-2-fluorocyclopropane-1-carboxamide] the figure was below 0.1 µM.
With `CN(C)c1c(F)cc(-c2ccc3nc(NC(=O)[C@@H]4C[C@@H]4F)sc3c2)c2cn[nH]c12` [Example 139, (1S,2S)-N-(6-(7-(dimethylamino)-6-fluoro-1H-indazol-4-yl)benzo[d]thiazol-2-yl)-2-fluorocyclopropane-1-carboxamide] the figure was below 0.1 µM; with `O=C(Nc1nc2ccc(-c3cc(F)c(OC(F)(F)F)c4[nH]ncc34)cc2s1)[C@@H]1C[C@@H]1F` [Example 140, (1S,2S)-2-fluoro-N-(6-(6-fluoro-7-(trifluoromethoxy)-1H-indazol-4-yl)benzo[d]thiazol-2-yl)cyclopropane-1-carboxamide], above 1 µM.
Next, `CSc1c(F)cc(-c2ccc3nc(NC(=O)[C@@H]4C[C@@H]4F)sc3c2)c2cn[nH]c12` [Example 141, (1S,2S)-2-fluoro-N-(6-(6-fluoro-7-(methylthio)-1H-indazol-4-yl)benzo[d]thiazol-2-yl)cyclopropane-1-carboxamide]: above 1 µM; `CSc1ccc(-c2ccc3nc(NC(=O)[C@@H]4C[C@@H]4F)sc3c2)c2cn[nH]c12` [Example 142, (1S,2S)-2-fluoro-N-(6-(7-(methylthio)-1H-indazol-4-yl)benzo[d]thiazol-2-yl)cyclopropane-1-carboxamide]: above 1 µM; `CN(C)C(=O)c1c(F)cc(-c2ccc3nc(NC(=O)[C@@H]4C[C@@H]4F)sc3c2)c2cn[nH]c12` [Example 144, 6-fluoro-4-(2-((1S,2S)-2-fluorocyclopropane-1-carboxamido)benzo[d]thiazol-6-yl)-N,N-dimethyl-1H-indazole-7-carboxamide]: 0.101 to 0.5 µM.
Take `CN(C)C(=O)c1c(F)cc2[nH]ncc2c1-c1ccc2nc(NC(=O)[C@@H]3C[C@@H]3F)sc2c1` [Example 145, 6-fluoro-4-(2-((1S,2S)-2-fluorocyclopropane-1-carboxamido)benzo[d]thiazol-6-yl)-N,N-dimethyl-1H-indazole-5-carboxamide]: the IC50 was above 1 µM.
With `Cc1ccc2[nH]ncc2c1-c1ccc2nc(NC(=O)[C@@H]3C[C@@H]3F)sc2n1` [Example 146, (1S,2S)-2-fluoro-N-(5-(5-methyl-1H-indazol-4-yl)thiazolo[5,4-b]pyridin-2-yl)cyclopropane-1-carboxamide] the figure was 0.101 to 0.5 µM.
Turning to `Cc1c(F)cc2[nH]ncc2c1-c1ccc2nc(NC(=O)[C@@H]3C[C@@H]3F)sc2n1` [Example 147, (1S,2S)-2-fluoro-N-(5-(6-fluoro-5-methyl-1H-indazol-4-yl)thiazolo[5,4-b]pyridin-2-yl)cyclopropane-1-carboxamide], the IC50 is below 0.1 µM.

As usually defined, the IC50 is the midpoint of a concentration-inhibition curve.
